Data set [1] can be described thus: Rat liver microsome incubation. Type of data set: in vitro ADME. As to conditions: for Rat microsomes Clearance: intrinsic clearance, rat liver microsomes 1.0 mg prot/mL, prodrug 10 μM, 37° C.; for Rat microsomes MAB %: maximal achievable bioavailability (1−E), extrapolated from rat microsomal clearance. Here is the method:
(§1) Test Description for Microsome Incubation
(§2) Rat and human liver microsome incubations were conducted on-line in a CTC PAL autosampler in order to avoid any degradation of the prodrugs during the work-up. Incubation mixtures consisted of liver microsomes (rat 1.0 mg prot/mL or human 2.0 mg prot/mL), prodrug 10 μM, MgCl2 (3.3 mM), and an NADPH regenerating system consisting of glucose-6-phosphate dehydrogenase, NADPH and glucose-6-phosphate equivalent to 1 mM NADPH) in a total volume of 1.0 mL of potassium phosphate buffer 100 mM pH 7.4.
(§3) Reactions were initiated by addition of the NADPH regenerating system at 37° C. At time 1, 5, 9, 13, 17, 21, 25, and 29 min a 5 μL aliquot was directly analysed on a HPLC-MS/MS system comprising of a HP 1100 quaternary pump with degasser and a PE-Sciex API-2000 MS/MS spectrometer. The analytical column was a Waters Symmetry Shield RP8 (2.1*50 mm with a […] particle size). A polarity non linear gradient from phase A (MeOH/Ac. Form.1% 20/80) to phase B (MeOH) was applied for a total run time of 2 minutes at a flow rate of 0.25 mL/min. The PE-Sciex API-2000 MS/MS spectrometer was used for detection of both the prodrugs and the parent compound (R)-1-[6-[(R)-2-carboxy-pyrrolidin-1-yl]-6-oxo-hexanoyl]-pyrrolidine-2-carboxylic acid. In vivo metabolic clearance was predicted according to published procedures (Houston, J. B., Biochem. Pharmacol., 47:1469-1479, 1994). In brief, the intrinsic clearance (Clearance, Table 1) was calculated from the measured in vitro half-life taking into account incubation volume and microsomal protein used for the in vitro incubation. The intrinsic clearance was expressed in terms of ul/min/mg microsomal protein. For in vivo extrapolations, the hepatic extraction ratio (E) was calculated. Reported below is the %MAB value (maximal achievable bioavailability), which is equal to 1−E.

Data set [2] can be described thus: Stability of the prodrugs in plasma samples. Type of data set: in vitro ADME, rat. The note with it: half-life (50% conversion of the prodrug), 10 μM, 37° C. Here is the method: Stability of the Prodrugs in Blood and Plasma Samples
Plasma and blood samples from different species were merged with equimolar amounts (10 μM) of prodrug and parent drug in DMSO and incubated for different time intervals (up to 60 min.) at 37° C. The reaction was stopped by protein precipitation with acetonitrile followed by centrifugation (20 min., 1800 g at 10° C.). The supernatant was immediately subjected to analysis.
The concentration of formed parent compound was determined by LC-MS. The chromatographic system was comprised of a trapping column (X-Terra™ MS C8 3.5 μm, 10×2.1 mm i.d., Waters) and an analytical column (Symmetry C8 3.5 μm, 50×2.1 mm i.d., Waters) connected to a SCIEX API 2000 triplequadrupole mass spectrometer equipped with a turbo ion spray interface. The mobile phases were 1% aqueous formic acid and acetonitrile. The parent compound together with its deuterium labelled internal standard was enriched on the trapping column and eluted with a fast gradient. The retention time of (R)-1-[6-[(R)-2-carboxy-pyrrolidin-1-yl]-6-oxo-hexanoyl]-pyrrolidine-2-carboxylic acid was ˜2.1 min. The effluent (300 μl min^−1) was passed to the turbo ion spray interface without splitting and was nebulized using nitrogen. Multiple reaction monitoring (MRM) in positive mode Was used for mass spectrometric detection. The transitions for the parent were 341.1 [M+H]^+ to 226.1 [Fragment]^+ and for the internal standard 349.1 [M+H]^+ to 234.1 [Fragment]^+. The results were expressed as half-lifes (50% conversion of the prodrug), using the data of the prodrug at time-point 0 min. as […].

Data set [3] can be described thus: Human liver microsome incubation. As to conditions: for Human microsomes Clearance: intrinsic clearance, human liver microsomes 2.0 mg prot/mL, prodrug 10 μM, 37° C.; for Human microsomes MAB %: maximal achievable bioavailability (1−E), extrapolated from human microsomal clearance. The format is in vitro ADME. Here is the method:
as §1, §2, §3

For the compound `NC(=O)COC(=O)[C@H]1CCCN1C(=O)CCCCC(=O)N1CCC[C@@H]1C(=O)OCC(N)=O` [Example 1, (R)-1-[6-[(R)-2-Carbamoylmethoxycarbonyl-pyrrolidin-1-yl]-6-oxo-hexanoyl]-pyrrolidine-2-carboxylic acid carbamoylmethyl ester], in data set [1], the “Rat microsomes Clearance” value is listed as 5 ul/min/mg microsomal protein and the “Rat microsomes MAB %” value is listed as 88%. The “Rat plasma tl/2 hours” value in data set [2] came to 0.4 h. In data set [3], the “Human microsomes Clearance” value is reported as 1 ul/min/mg microsomal protein and the “Human microsomes MAB %” value is 93%.
For `C=CCNC(=O)COC(=O)[C@H]1CCCN1C(=O)CCCCC(=O)N1CCC[C@@H]1C(=O)OCC(=O)NCC=C` [Example 2, (R)-1-[6-[(R)-2-Allylcarbamoylmethoxycarbonyl-pyrrolidin-1-yl]-6-oxo-hexanoyl]-pyrrolidine-2-carboxylic acid allylcarbamoylmethyl ester], in that order: 18 ul/min/mg microsomal protein, 66%, “low”, 64 ul/min/mg microsomal protein and 20%.
As to `CC(C)NC(=O)COC(=O)[C@H]1CCCN1C(=O)CCCCC(=O)N1CCC[C@@H]1C(=O)OCC(=O)NC(C)C` [Example 3, (R)-1-{6-[(R)-2-(Isopropylcarbamoyl-methoxycarbonyl)-pyrrolidin-1-yl]-6-oxo-hexanoyl}-pyrrolidine-2-carboxylic acid isopropylcarbamoyl-methyl ester], in data set [1], the “Rat microsomes Clearance” value is 82 ul/min/mg microsomal protein and the “Rat microsomes MAB %” value is given as 30%. In data set [2], the “Rat plasma tl/2 hours” value is listed as “low”. In data set [3], the “Human microsomes Clearance” value is 16 ul/min/mg microsomal protein and the “Human microsomes MAB %” value was 50%.
The like results for `CC(C)(C)NC(=O)COC(=O)[C@H]1CCCN1C(=O)CCCCC(=O)N1CCC[C@@H]1C(=O)OCC(=O)NC(C)(C)C` [Example 4, (R)-1-{6-[(R)-2-(tert-Butylcarbamoyl-methoxycarbonyl)-pyrrolidin-1-yl]-6-oxo-hexanoyl}-pyrrolidine-2-carboxylic acid tert-butylcarbamoyl-methyl ester] were, in that order, 625 ul/min/mg microsomal protein, 5%, “low”, 57 ul/min/mg microsomal protein and 22%.
For `O=C(COC(=O)[C@H]1CCCN1C(=O)CCCCC(=O)N1CCC[C@@H]1C(=O)OCC(=O)NC1CC1)NC1CC1` [Example 5, (R)-1-{6-[(R)-2-(Cyclopropylcarbamoyl-methoxycarbonyl)-pyrrolidin-1-yl]-6-oxo-hexanoyl}-pyrrolidine-2-carboxylic acid cyclopropylcarbamoyl-methyl ester], in that order: 36 ul/min/mg microsomal protein, 50%, “low”, 8 ul/min/mg microsomal protein and 67%.
Turning to `CN(C)C(=O)COC(=O)[C@H]1CCCN1C(=O)CCCCC(=O)N1CCC[C@@H]1C(=O)OCC(=O)N(C)C` [Example 6, (R)-1-{6-[(R)-2-(Dimethylcarbamoyl-methoxycarbonyl)-pyrrolidin-1-yl]-6-oxo-hexanoyl}-pyrrolidine-2-carboxylic acid dimethylcarbamoyl-methyl ester], in data set [1], the “Rat microsomes Clearance” value is listed as 7 ul/min/mg microsomal protein and the “Rat microsomes MAB %” value was 84%. Further, the “Rat plasma tl/2 hours” value in data set [2] amounted to 0.8 h. Further, in data set [3], the “Human microsomes Clearance” value is 1 ul/min/mg microsomal protein and the “Human microsomes MAB %” value is 96%.
For `CCN(CC)C(=O)COC(=O)[C@H]1CCCN1C(=O)CCCCC(=O)N1CCC[C@@H]1C(=O)OCC(=O)N(CC)CC` [Example 7, (R)-1-{6-[(R)-2-(Diethylcarbamoyl-methoxycarbonyl)-pyrrolidin-1-yl]-6-oxo-hexanoyl}-pyrrolidine-2-carboxylic acid diethylcarbamoyl-methyl ester], in that order: 9 ul/min/mg microsomal protein, 73%, 0.2 h, 2 ul/min/mg microsomal protein and 90%.
For `COC(=O)[C@H]1CCCN1C(=O)CCCCC(=O)N1CCC[C@@H]1C(=O)OC` [Example 10, (R)-1-{6-[(R)-2-Methoxycarbonyl-pyrrolidin-1-yl]-6-oxo-hexanoyl}-pyrrolidine-2-carboxylic acid methyl ester], in that order: 9 ul/min/mg microsomal protein, 79%, 1.3 h, 2 ul/min/mg microsomal protein and 90%.
For `CCOC(=O)[C@H]1CCCN1C(=O)CCCCC(=O)N1CCC[C@@H]1C(=O)OCC` [Example 11, (R)-1-{6-[(R)-2-Ethoxycarbonyl-pyrrolidin-1-yl]-6-oxo-hexanoyl}-pyrrolidine-2-carboxylic acid ethyl ester], in that order: 46 ul/min/mg microsomal protein, 44%, 0.4 h, 5 ul/min/mg microsomal protein and 77%.
As for `CCCOC(=O)[C@H]1CCCN1C(=O)CCCCC(=O)N1CCC[C@@H]1C(=O)OCCC` [Example 12, (R)-1-{6-Oxo-6-[(R)-2-propoxycarbonyl-pyrrolidin-1-yl]-hexanoyl}-pyrrolidine-2-carboxylic acid propyl ester], in data set [1], the “Rat microsomes Clearance” value is reported as 253 ul/min/mg microsomal protein and the “Rat microsomes MAB %” value is recorded as 12%. Moreover, in data set [3], the “Human microsomes Clearance” value was 73 ul/min/mg microsomal protein and the “Human microsomes MAB %” value is given as 18%.

The values are drawn from patent US6903129B2, “D-proline prodrugs” (Hoffman-La Roche Inc., priority 2001, dated 2005).
